Source: US20230416329A1, “A PEPTIDE WITH DISULFIDE BONDS AND INHIBITORY ACTIVITY AGAINST SERINE PROTEASES, DERIVED HYBRID PEPTIDES THEREOF, AND USES THEREOF” (INSTITUTE OF MATERIA MEDICA , CHINESE ACADEMY OF MEDICAL …, priority 2020, published 2023)
pIC50, pKi: −log10 of the molar value. Bridge positions count the residues as written; N and C are the ends. Peptide text beside a SMILES is read from it.

Target: T1, bovine trypsin (Bos taurus, UniProt P00760)
T1 sequence (P00760 24-246): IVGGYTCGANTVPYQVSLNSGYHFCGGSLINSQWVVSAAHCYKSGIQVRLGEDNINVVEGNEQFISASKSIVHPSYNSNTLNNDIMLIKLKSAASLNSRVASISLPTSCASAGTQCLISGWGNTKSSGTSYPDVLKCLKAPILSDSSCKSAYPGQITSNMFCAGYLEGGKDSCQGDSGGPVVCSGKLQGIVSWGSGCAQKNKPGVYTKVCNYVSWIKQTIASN
Experiment: Trypsin inhibitory activity of peptides (BApNA hydrolysis, OD405; IC50, Ki, residual activity)
Assay type: biochemical
Details: for pKi: read-out: inhibition constant (Ki) towards trypsin; for pIC50: trypsin 50 nM, BApNA 1.22 mM, read-out: IC50
Description: The substrates N-succinyl-Ala-Ala-Pro-Phe-p-nitroaniline (AAPFpNA), Nα—Benzoyl-L-arginine-4-nitroaniline hydrochloride (BApNA) and N-succinyl-[…] (AAApNA) are used in competitive binding reaction to determine the inhibitory activities against α-chymotrypsin, bovine trypsin, and porcine pancreatic elastase, respectively. Experiments for α-chymotrypsin and bovine trypsin inhibition were measured in 20 mM CaCl2, 50 mM Tris-HCl buffer (pH 7.8), and that for porcine elastase inhibition was measured in 50 mM Tris-HCl buffer (pH 8.0). The concentration of the peptide was measured using optical density (OD) at 280 nm. The Michaelis constant (Km) of the enzyme hydrolysis substrate is calculated from the initial rate of substrate hydrolysis at 405 nm. The absorbance value of the substrate was measured at 405 nm after complete hydrolysis. All data were processed using nonlinear regression.
• (1) Added 200 μL of reaction buffer (20 mM CaCl2 and 50 mM Tris-HCl, pH 7.8) into the 96-well plate, and preheated at 37° C. for 15 min. Then added 5 μL of different concentrations of substrates (p-Nitroanilide, pNA, 0.5% in DMSO), and mixed by centrifugation at 500 rpm for 1 min. […] The experiment was performed in triplicate. The standard curve was obtained by plotting the OD405 nm value with pNA concentration. • (2) Added 190 μL of reaction buffer (20 mM CaCl2 and 50 mM Tris-HCl, pH 7.8) and 10 μL of 1 μM trypsin into the 96-well plate, and preheated at 37° C. for 15 min. Then added 5 μL of different concentrations of substrates (BApNA, 0.5% in DMSO) and mixed by centrifugation at 500 rpm for 1 min. […] The experiment was performed in triplicate. The corresponding curve was obtained by plotting the OD405 nm value with time. Divided the slope of the curve by the slope of the standard curve and the enzyme concentration to obtain the initial velocity V0 (mM/(min*mM protein). Plotted the initial velocity V0 with the concentration of substrate BApNA using Prism software, and the Michaelis constant Km value of trypsin hydrolyzing BApNA was obtained.
• (1) Added a total 190 μL of reaction buffer (20 mM CaCl2 and 50 mM Tris-HCl, pH 7.8) along with different concentrations of anti-trypsin peptides (BTs) into the pre-cooled 96-well plate, followed by preheating at 37° C., and spined down at 500 rpm for 5 min. Next added 10 μL of 1 μM trypsin, incubated at 37° C., and then spined down at 500 rpm for 10 min. Finally, added 5 μL of 50 mM BApNA, and mixed by centrifugation at 500 rpm for 1 min. The plate was incubated at 37° C. for 260 min, and the absorbance value at 405 nm was measured. The experiment was performed in triplicate. The blank control only contained the reaction buffer and the substrate as the minimum absorption value (Min OD405 nm). The negative control only contained the reaction buffer, the enzyme and the substrate as the maximum absorption value (Max OD405 nm). • (2) In the reaction system of 205 μL, the final concentrations of trypsin and BApNA were 50 nM and 1.22 mM, respectively. • (3) Data statistics
Residual activity of the enzyme (%)=(1−(Max OD405 nm−Sample OD405 nm)/(Max OD405 nm−Min OD405 nm))*100
Plotted the residual activity of the enzyme with […] to obtain the half inhibitory concentration (IC50) of BTs scaffold against trypsin. Then, substituted it into the formula Ki=IC50/(1+S/Km) (S, IC50 and Km were substrate concentration, half inhibitory concentration and Michaelis constant, respectively) to obtain the inhibition constant Ki of BTs scaffold against trypsin.

Row | Residual trypsin activity (peptide 0.488 μM) [%] | Residual trypsin activity (peptide 0.98 μM) [%] | Residual trypsin activity (peptide 1.95 μM) [%] | Residual trypsin activity (peptide 4.88 μM) [%] | pKi | pIC50 | inhibitory activity against trypsin (in words) | Residual trypsin activity (peptide 0.00488 μM) [%] | Residual trypsin activity (peptide 0.0488 μM) [%] | also measured | Structure (SMILES)
1 | 94.6 ± 1.7 | 83.6 ± 5.2 | 72.9 ± 6.1 | 12.9 ± 1.3 | 6.19 |  |  |  |  | Residual trypsin activity (peptide 2.93 μM): 51.2 ± 9.0%; Residual trypsin activity (peptide 9.76 μM): 4.2 ± 0.4%; Residual trypsin activity (peptide 19.51 μM): 3.7 ± 0.5%; Residual trypsin activity (peptide 39.02 μM): 0.5 ± 0.1% | CC[C@H](C)[C@@H]1NC(=O)[C@@H]2CCCN2C(=O)[C@@H]2CCCN2C(=O)[C@H]([C@@H](C)CC)NC(=O)[C@H](CO)NC(=O)[C@H](CCCCN)NC(=O)[C@H]([C@@H](C)O)NC(=O)CNC(=O)[C@H](CCCCN)NC(=O)[C@H](C)NC(=O)CNC(=O)[C@@H](N)CSSC[C@@H](C(=O)N[C@@H](Cc2ccccc2)C(=O)N2CCC[C@H]2C(=O)N[C@@H](CC(=O)O)C(=O)O)NC1=O [BT2] (H-CGAKGTKSIPPICFPD-OH; disulfide 1-13; N-terminus and C-terminus assumed)
2 | 67.2 ± 4.8 | 23.3 ± 5.3 |  | 1.8 ± 0.9 | 6.85 |  |  |  |  | Residual trypsin activity (peptide 0.098 μM): 95.7 ± 3.6%; Residual trypsin activity (peptide 0.1463 μM): 86.8 ± 2.5%; Residual trypsin activity (peptide 0.293 μM): 85.6 ± 1.3%; Residual trypsin activity (peptide 9.76 μM): 0.9 ± 0.4%; Residual trypsin activity (peptide 19.51 μM): 0.1 ± 0.0% | CC[C@H](C)[C@@H]1NC(=O)[C@@H]2CCCN2C(=O)[C@@H]2CCCN2C(=O)[C@H]([C@@H](C)CC)NC(=O)[C@H](CO)NC(=O)[C@H](CCCCN)NC(=O)[C@H]([C@@H](C)O)NC(=O)[C@H](C)NC(=O)[C@H](CCCCN)NC(=O)[C@H](C)NC(=O)CNC(=O)[C@@H](N)CSSC[C@@H](C(=O)N[C@@H](Cc2ccccc2)C(=O)N2CCC[C@H]2C(=O)N[C@@H](CC(=O)O)C(=O)O)NC1=O [BT3] (H-CGAKATKSIPPICFPD-OH; disulfide 1-13; N-terminus and C-terminus assumed)
3 |  |  |  |  |  | < 4.30 |  |  |  |  | CC[C@H](C)[C@@H]1NC(=O)[C@@H]2CCCN2C(=O)[C@@H]2CCCN2C(=O)[C@H]([C@@H](C)CC)NC(=O)[C@H](CO)NC(=O)[C@H](CCCCN)NC(=O)[C@H]([C@@H](C)O)NC(=O)CNC(=O)[C@H](CCCCN)NC(=O)[C@H](C)NC(=O)CNC(=O)[C@@H](N)CSSC[C@@H](C(=O)N[C@@H](CC(=O)O)C(=O)O)NC(=O)[C@H](Cc2ccccc2)NC(=O)CNC1=O [BT4] (H-CGAKGTKSIPPIGFCD-OH; disulfide 1-15 (inferred); N-terminus and C-terminus assumed)
4 | 3.0 ± 0.2 | 0.7 ± 0.1 |  |  | 7.52 |  | enhanced trypsin inhibitory activity | 103.7 ± 5.2 | 83.1 ± 0.4 | Residual trypsin activity (peptide 0.00098 μM): 104.0 ± 5.2%; Residual trypsin activity (peptide 0.002439 μM): 108.1 ± 2.6%; Residual trypsin activity (peptide 0.098 μM): 75.2 ± 5.9% | CC[C@H](C)[C@@H]1NC(=O)[C@@H]2CCCN2C(=O)[C@@H]2CCCN2C(=O)[C@H]([C@@H](C)CC)NC(=O)[C@H](CO)NC(=O)[C@H](CCCCN)NC(=O)[C@H]([C@@H](C)O)NC(=O)[C@H](C)NC(=O)[C@H](CCCNC(=N)N)NC(=O)CNC(=O)[C@@H](N)CSSC[C@@H](C(=O)N[C@@H](Cc2ccccc2)C(=O)N2CCC[C@H]2C(=O)N[C@@H](CC(=O)O)C(=O)O)NC1=O [BT5] (H-CGRATKSIPPICFPD-OH; disulfide 1-12; N-terminus and C-terminus assumed)
5 | 25.9 ± 2.9 | 8.5 ± 0.9 | 2.8 ± 0.0 | 1.2 ± 0.2 | 7.22 | 6.54 | enhanced trypsin inhibitory activity | 111.9 ± 7.2 |  | Residual trypsin activity (peptide 0.000488 μM): 99.3 ± 7.2%; Residual trypsin activity (peptide 0.002439 μM): 108.6 ± 7.1%; Residual trypsin activity (peptide 0.195 μM): 77.5 ± 7.6% | CC[C@H](C)[C@@H]1NC(=O)[C@@H]2CCCN2C(=O)[C@@H]2CCCN2C(=O)[C@H]([C@@H](C)CC)NC(=O)[C@H](CO)NC(=O)[C@H](CCCCN)NC(=O)[C@H]([C@@H](C)O)NC(=O)[C@H](C)NC(=O)[C@H](CO)NC(=O)CNC(=O)[C@@H](N)CSSC[C@@H](C(=O)N[C@@H](Cc2ccccc2)C(=O)N2CCC[C@H]2C(=O)N[C@@H](CC(=O)O)C(=O)O)NC1=O [BT6] (H-CGSATKSIPPICFPD-OH; disulfide 1-12; N-terminus and C-terminus assumed)
6 |  | 5.7 ± 1.7 | 1.5 ± 0.3 |  | 7.30 |  | enhanced trypsin inhibitory activity |  | 95.2 ± 1.1 | Residual trypsin activity (peptide 0.000098 μM): 103.5 ± 1.6%; Residual trypsin activity (peptide 0.0002439 μM): 107.8 ± 3.2%; Residual trypsin activity (peptide 0.000488 μM): 97.9 ± 4.3%; Residual trypsin activity (peptide 0.2439 μM): 48.5 ± 5.3%; Residual trypsin activity (peptide 1.463 μM): 2.9 ± 1.1% | CC[C@H](C)[C@@H]1NC(=O)[C@@H]2CCCN2C(=O)[C@@H]2CCCN2C(=O)[C@H]([C@@H](C)CC)NC(=O)[C@H](CO)NC(=O)[C@H](CCCCN)NC(=O)[C@H]([C@@H](C)O)NC(=O)[C@H](C)NC(=O)[C@H](C)NC(=O)CNC(=O)[C@@H](N)CSSC[C@@H](C(=O)N[C@@H](Cc2ccccc2)C(=O)N2CCC[C@H]2C(=O)N[C@@H](CC(=O)O)C(=O)O)NC1=O [BT7] (H-CGAATKSIPPICFPD-OH; disulfide 1-12; N-terminus and C-terminus assumed)
7 |  |  |  |  |  | < 4.30 |  |  |  |  | CC[C@H](C)[C@@H]1NC(=O)[C@@H]2CCCN2C(=O)[C@@H]2CCCN2C(=O)[C@H]([C@@H](C)CC)NC(=O)[C@H](CO)NC(=O)[C@H](CCCCN)NC(=O)[C@H]([C@@H](C)O)NC(=O)[C@H](C)NC(=O)[C@H](CCCNC(=N)N)NC(=O)CNC(=O)[C@@H](N)CSSC[C@@H](C(=O)O)NC1=O [BT8] (H-CGRATKSIPPIC-OH; disulfide 1-12 (inferred); N-terminus and C-terminus assumed)
8 | −0.2 ± 0.1 | −0.4 ± 0.0 |  |  | 8.00 | 7.15 | excellent trypsin inhibitory activities | 99.0 ± 0.5 | 68.1 ± 1.4 | Residual trypsin activity (peptide 0.00098 μM): 100.4 ± 0.6%; Residual trypsin activity (peptide 0.0098 μM): 94.3 ± 1.3%; Residual trypsin activity (peptide 0.02439 μM): 84.2 ± 1.9%; Residual trypsin activity (peptide 0.2439 μM): 0.3 ± 0.0% | CC[C@H](C)[C@@H]1NC(=O)[C@@H]2CCCN2C(=O)[C@@H]2CCCN2C(=O)[C@H]([C@@H](C)CC)NC(=O)[C@H](CO)NC(=O)[C@H](CCCCN)NC(=O)[C@H]([C@@H](C)O)NC(=O)[C@H](C)NC(=O)[C@H](CCCNC(=N)N)NC(=O)CNC(=O)[C@@H](N)CSSC[C@@H](C(=O)N[C@@H](Cc2ccccc2)C(=O)O)NC1=O [BT9] (H-CGRATKSIPPICF-OH; disulfide 1-12; C-terminus assumed)
